“And” between values parts separate entries of the source, which are not always exact repeats. Equal values may be shown once. Marks after values point to notes of the source that are not given here.
Tested on: spinal nerve ligation model for neuropathic pain in rats
Test: Von Frey test for mechanical allodynia in the spinal nerve ligation (Chung) model of neuropathic pain
Format: in vivo, rat
Details: for mean Von Frey force required for withdrawal of left operated leg, Baseline: baseline before surgery and treatment
Description: Experimental animals were male SD rats with a starting weight of 230-250 grams. Total number of animals were n=90 for surgery and n=60 after selection. The animals were caged in groups of 3 in a temperature and humidity controlled area. They were maintained on a 12 hr light/dark cycle and had ad libitum access to food and water. Rodent models of neuropathic pain are used to investigate the underlying mechanisms of pain associated with damage to peripheral nerves and to evaluate the efficacy of novel. Tactile sensitivity was measured 7-21 days post-surgery using von Frey monofilaments before and following treatment with gabapentin and other compounds (La Buda et al. 2005).
Neuropathic pain inducement was done by following principles of Chung induced model. The SD rats were anesthetized using ketamine/xylazine sodium. The rats were shaved and placed in prone position for surgery. The L5-L6 spinal nerves were surgically litigated. The rats were returned to their cages for recuperation and recovery under comfortable warm conditions using heat lamps.
After seven days of surgery a pre selection was performed. Animals that indicate signs of post operative pain were to be selected to proceed. Pain is detected by observing when one or more of the criteria are met as follows. Licking of the operated paw, accompanied by gentle biting or pulling on the nails with the mouth; placing the leg in the air; bearing weight on the side contra-lateral to the nerve injury; deformities of the hind paw and abnormal posture and walking; weakness of the left hind paw. […] However, the animal must be able to move its leg to ensure that the L4 spinal nerve is intact. If the animal cannot move its leg, it was excluded from the study.
Second level of selection of the rats was done on day 14 after the surgery. Von Frey test was performed on the preselected rats after day 7 on day 14. Using Von Frey methodology, animals with a pain threshold of ≦26 g for the operated leg will be included in the study. After this selection step, the animals were randomly placed into their experimental groups.
Blank, positive control and test compound: Blank was just the medium used for dissolving other compounds. The positive control was Gabapentin and the test compound was the final compound of formula 1 discussed in the instant disclosure. Three types of experimental groups were formed. Different types of chemicals such as Vehicle and Control were used to determine the efficacy of the chemicals as well comparison of the instant disclosed compound of formula 1, with a positive control was performed. The final compound of the instant disclosure was administered at 100 mg/kg and 150 mg/kg body weight as two different groups. The Gabapentin was administered at 150 mg/kg body weight.
On day 14 blank compound and final compound will be administered once daily starting on study day 14 through study day 21. Gabapentin, the positive control, will be administered 2 hours prior to pain testing on study days 14 and 21. The Von Frey test was be performed prior to final compound administration (pre-final compound injection) and after final compound administration at 0.5 hours, 2 hours and 4.5 hours post-final compound injection on study days 14 and 21. Additionally, if the Von Frey response for the operated leg of one of the six treatment groups is significant at 4.5 hours, all the groups will be tested again at 6.5 hours. In all instances, unless decided otherwise in the course of the study, all dosing solutions are applied as once a day intra peritoneal (IP) administration on each of the repeated dosing sessions. After the termination of the study the animals were euthanized.
Pain Response Evaluation: Pain response was evaluated using Von Frey test for mechanical allodynia. The Von Frey test for mechanical allodynia is based on applying short pulses of pressure that are not painful to a naïve animal. […]

[1] = 150 mg/kg IP, study days 14 and 21
[2] = Table 9 (day 14), male SD rats, mean
[3] = Table 10 (day 21), male SD rats
[4] = study day 14, before first dose, male SD rats
[5] = study day 14, 150 mg/kg IP, male SD rats
[6] = study day 14, 150 mg/kg IP, male SD rats, 150 mg/kg
[7] = study day 14, 150 mg/kg IP, male SD rats, listed as gabapentin, 150 mg/kg
[8] = study day 21, before that day's dose, KRB-5b once daily from day 14, gabapentin on days 14 and 21, 150 mg/kg IP
[9] = study day 21, 150 mg/kg IP, male SD rats
[10] = study day 21, 150 mg/kg IP, male SD rats, 150 mg/kg

NCC1(CC(=O)O)CCCCC1 [Gabapentin, reference compound]
analgesic effect on mechanical allodynia compared to Vehicle (in words) [1]: active only at 2 hours post dosing
mean Von Frey force required for withdrawal of left operated leg, Baseline [2]: 60.00 g
mean Von Frey force required for withdrawal of left operated leg, Baseline [3]: 60 g
mean Von Frey force required for withdrawal of left operated leg, Pre-treatment [4]: 9.69 g
mean Von Frey force required for withdrawal of left operated leg, 30 min Post treatment [5]: 9.85 g
mean Von Frey force required for withdrawal of left operated leg, 6.5 hr Post treatment [5]: 10.69 g
mean Von Frey force required for withdrawal of left operated leg, 2 hr Post treatment [6]: 35.69* g
mean Von Frey force required for withdrawal of left operated leg, 4.5 hr Post treatment [6]: 10.69 g
mean Von Frey force required for withdrawal of left operated leg, 2 hr Post treatment [7]: 35.69 ± 5.69 g
mean Von Frey force required for withdrawal of left operated leg, 4.5 hr Post treatment [7]: 10.69 ± 1.42 g
mean Von Frey force required for withdrawal of left operated leg, Pre-treatment [8]: 7.92 g
mean Von Frey force required for withdrawal of left operated leg, 30 min Post treatment [9]: 9.85 g
mean Von Frey force required for withdrawal of left operated leg, 6.5 hr Post treatment [9]: 9.62 g
mean Von Frey force required for withdrawal of left operated leg, 2 hr Post treatment [10]: 48.69±4.96 g and 48.69* g
mean Von Frey force required for withdrawal of left operated leg, 4.5 hr Post treatment [10]: 10.62 g
mean Von Frey force required for withdrawal of left operated leg, 4.5 hr Post treatment (study day 21, 150 mg/kg IP, male SD rats, listed as gabapentin, 150 mg/kg): 10.62 ± 0.90 g

CCN(CCOC(=O)CCCCC1CCSS1)CC(=O)Nc1c(C)cccc1C (stereo not shown) [KRB-5b]
analgesic activity compared to gabapentin (in words) [1]: prolonged analgesic activity compared to gabapentin
analgesic effect on mechanical allodynia compared to Vehicle (in words) [1]: effective as a pain analgesic item
analgesic effect on mechanical allodynia compared to Vehicle (in words) (150 mg/kg IP, study days 14 and 21, listed as formula 1): effective in treating the spinal nerve ligation model for neuropathic pain in rats
mean Von Frey force required for withdrawal of left operated leg, Baseline [2]: 60.00 g
mean Von Frey force required for withdrawal of left operated leg, Baseline [3]: 60 g
mean Von Frey force required for withdrawal of left operated leg, Pre-treatment [4]: 11.00 g
mean Von Frey force required for withdrawal of left operated leg, 30 min Post treatment [5]: 19.60 g
mean Von Frey force required for withdrawal of left operated leg, 6.5 hr Post treatment [5]: 16.40 g
mean Von Frey force required for withdrawal of left operated leg, 2 hr Post treatment [6]: 39.00±7.19 g and 39.00* g
mean Von Frey force required for withdrawal of left operated leg, 4.5 hr Post treatment [6]: 44.20±6.55 g and 44.20*# g
mean Von Frey force required for withdrawal of left operated leg, Pre-treatment [8]: 15.40 g
mean Von Frey force required for withdrawal of left operated leg, 30 min Post treatment [9]: 17.50 g
mean Von Frey force required for withdrawal of left operated leg, 2 hr Post treatment [9]: 21.30# g
mean Von Frey force required for withdrawal of left operated leg, 6.5 hr Post treatment [9]: 10.80 g
mean Von Frey force required for withdrawal of left operated leg, 4.5 hr Post treatment [10]: 26.20±5.81 g and 26.20*# g
